Results published in ChEMBL document CHEMBL5308504, “Tm Shift (DSF) assay results for EUbOPEN Chemogenomics Library” (2023).
Several values for one entry are separate records, joined by “and”; a condition that tells them apart may be missing. Equal entries are not always repeated.

What was measured:
[1] = target: T1, Peregrin (Homo sapiens) (UniProt P55201); conditions: Compound concentration 20.0 uM, Protein concentration 2.0 uM, Result type QC Liability
T1 sequence (whole entry): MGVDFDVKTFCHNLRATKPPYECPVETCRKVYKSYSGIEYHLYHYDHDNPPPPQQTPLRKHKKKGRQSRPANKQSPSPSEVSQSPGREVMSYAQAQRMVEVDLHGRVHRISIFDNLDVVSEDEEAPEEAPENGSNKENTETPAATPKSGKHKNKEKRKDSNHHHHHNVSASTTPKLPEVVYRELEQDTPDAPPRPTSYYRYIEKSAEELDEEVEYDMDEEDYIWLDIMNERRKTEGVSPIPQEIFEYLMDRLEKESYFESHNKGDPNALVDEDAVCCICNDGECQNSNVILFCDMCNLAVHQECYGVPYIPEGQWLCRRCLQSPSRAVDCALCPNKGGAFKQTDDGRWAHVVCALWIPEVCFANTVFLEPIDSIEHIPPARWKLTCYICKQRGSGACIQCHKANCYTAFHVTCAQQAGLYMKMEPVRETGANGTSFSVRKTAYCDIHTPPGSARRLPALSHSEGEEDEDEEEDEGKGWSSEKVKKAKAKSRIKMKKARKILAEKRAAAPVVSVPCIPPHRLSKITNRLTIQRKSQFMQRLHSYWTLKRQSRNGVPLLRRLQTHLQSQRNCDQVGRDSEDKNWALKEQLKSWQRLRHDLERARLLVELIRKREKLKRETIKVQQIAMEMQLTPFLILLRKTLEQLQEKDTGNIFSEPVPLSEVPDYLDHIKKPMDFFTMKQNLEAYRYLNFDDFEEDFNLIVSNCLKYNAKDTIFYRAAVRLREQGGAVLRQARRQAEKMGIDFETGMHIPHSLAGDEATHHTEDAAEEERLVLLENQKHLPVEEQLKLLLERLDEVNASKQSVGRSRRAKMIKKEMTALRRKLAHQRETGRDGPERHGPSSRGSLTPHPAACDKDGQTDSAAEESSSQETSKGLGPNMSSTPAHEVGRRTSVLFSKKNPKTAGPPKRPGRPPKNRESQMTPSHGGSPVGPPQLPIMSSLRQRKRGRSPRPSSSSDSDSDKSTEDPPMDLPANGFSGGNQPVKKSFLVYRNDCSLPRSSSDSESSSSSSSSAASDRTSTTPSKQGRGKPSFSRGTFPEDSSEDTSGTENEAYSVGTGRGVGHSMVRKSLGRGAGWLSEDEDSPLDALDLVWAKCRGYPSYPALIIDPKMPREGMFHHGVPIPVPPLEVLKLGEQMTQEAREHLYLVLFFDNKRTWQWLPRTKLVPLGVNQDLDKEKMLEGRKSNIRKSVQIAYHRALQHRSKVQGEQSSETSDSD

[2] = target: Fibroblast growth factor receptor 3 (Homo sapiens) (UniProt P22607); conditions: Compound concentration 20.0 uM, Protein concentration 2.0 uM, Result type QC Liability
Chain of Fibroblast growth factor receptor 3 (Homo sapiens) (P22607 23-806 limits assumed): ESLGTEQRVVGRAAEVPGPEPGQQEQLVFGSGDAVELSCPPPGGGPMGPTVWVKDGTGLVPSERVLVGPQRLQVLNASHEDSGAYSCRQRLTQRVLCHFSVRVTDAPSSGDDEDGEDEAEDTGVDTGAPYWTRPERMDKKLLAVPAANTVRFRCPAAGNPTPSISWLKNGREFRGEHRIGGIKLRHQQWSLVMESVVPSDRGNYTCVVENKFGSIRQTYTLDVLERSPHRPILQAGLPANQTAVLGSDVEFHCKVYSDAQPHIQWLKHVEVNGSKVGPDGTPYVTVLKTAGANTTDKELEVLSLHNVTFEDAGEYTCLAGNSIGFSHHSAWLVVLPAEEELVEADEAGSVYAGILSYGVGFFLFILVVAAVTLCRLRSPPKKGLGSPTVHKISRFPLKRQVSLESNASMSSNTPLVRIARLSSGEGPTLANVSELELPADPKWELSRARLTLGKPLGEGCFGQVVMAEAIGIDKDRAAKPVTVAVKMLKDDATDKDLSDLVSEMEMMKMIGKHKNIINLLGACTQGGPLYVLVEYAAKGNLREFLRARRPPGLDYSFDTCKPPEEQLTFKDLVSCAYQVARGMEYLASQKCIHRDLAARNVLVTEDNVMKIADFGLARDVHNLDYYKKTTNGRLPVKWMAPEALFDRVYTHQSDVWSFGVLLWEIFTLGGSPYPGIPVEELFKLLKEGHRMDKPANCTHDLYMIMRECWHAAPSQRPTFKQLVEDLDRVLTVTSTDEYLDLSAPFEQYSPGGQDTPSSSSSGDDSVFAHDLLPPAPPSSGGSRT
Description: Thermal Shift Assay. Domain: start/stop: P449-E759

| Structure (SMILES) | ΔTm [1] | ΔTm [2] |
| --- | --- | --- |
| Cc1nnc2n1-c1sc(CCC(=O)N3CCOCC3)cc1C(c1ccccc1Cl)=NC2 | -2.21 °C | 1.44 °C |
| Cc1ccc(-n2nc(C(C)(C)C)cc2NC(=O)Nc2ccc(OCCN3CCOCC3)c3ccccc23)cc1 | -3.09 °C and -0.42 °C | 3.18 °C and 3.23 °C |
| C=CC(=O)Nc1ccc2[nH]c(=O)n(C3CCN(Cc4ccc(-c5ccc6c(c5)NC(=O)CO6)cc4)CC3)c2c1 | -0.12 °C | 0.37 °C |
| NC(=O)c1ccccc1Nc1nc(-c2ccc(N3CCOCC3)cc2)cc2ncccc12 | -0.11 °C | 4.32 °C |
| CCOC(=O)/N=C(\N)c1ccc(OCc2cccc(COc3ccc(C(C)(C)c4ccc(OC(=O)OCC)cc4)cc3)c2)cc1 | -8.55 °C | 0.54 °C |
| COc1ccc(S(=O)(=O)N2CCOCC2)cc1Nc1ccc2c(n1)N(C1CCOCC1)[C@H](C)C(=O)N2C | 0.21 °C | 0.08 °C |
| CC1(C)Oc2ncnc(N)c2N=C1c1ccc([C@H]2CC[C@H](CC(=O)O)CC2)cc1 | -2.72 °C | 0.43 °C |
| CC(C)(O)[C@H]1CC[C@H](Nc2ccc3ncc(-c4cccc(C(F)(F)F)c4)n3n2)CC1 | 3.48 °C | 0.8 °C |
| CSc1ccc(C(=O)/C=C/c2cc(C)c(OC(C)(C)C(=O)O)c(C)c2)cc1 | -1.39 °C | 1.12 °C |
| CC1(C)CCC(CN2CCN(c3ccc(C(=O)NS(=O)(=O)c4ccc(NCC5CCOCC5)c([N+](=O)[O-])c4)c(Oc4cnc5[nH]ccc5c4)c3)CC2)=C(c2ccc(Cl)cc2)C1 | -1.4 °C | 1.11 °C |
| CCCNc1ccc2ncc(-c3ccncc3)n2n1 | 0.26 °C | 3.37 °C |
| CC(=O)Nc1nc(CN2CCC[C@H](Cc3cc(C)nc(C)c3)C2)cs1 | -1.25 °C | 0.78 °C |
| COc1cc2nc(C)nc(NC3(c4ccccc4)CC3)c2cc1OC | -3.11 °C | 0.4 °C |
| Cc1nc2cccnc2n2c(-c3cc(C(C)(C)O)ncc3Cl)nnc12 | -3.02 °C | 1.25 °C |
| O=C1Nc2nc(-c3c(O)cccc3OCC3CC3)cc([C@@H]3CCCNC3)c2CO1 | -2.51 °C | 1.04 °C |
| COc1cc(Cl)c(C(=O)N[C@@H](CN[C@H]2CC[C@@H](N)CC2)Cc2ccc(C#N)cc2)cc1-c1ccc(CN[C@H](C)c2ccc(C)cc2)o1 | -2.44 °C | 1.14 °C |
| COc1ccccc1Nc1nc(-c2nn(Cc3c(F)cc(OCCCO)cc3F)c3ccccc23)ncc1OC | -1.09 °C | 0.41 °C |
| CCCCC[C@H](O)/C=C/[C@H]1[C@H](O)CC(=O)[C@@H]1CCCCCCC(=O)O | -2.24 °C | 0.41 °C |
